Measured values: US11001564B2, “Substituted chromane-8-carboxamide compounds and analogues thereof, and methods using same” (priority 2016, dated 2021)
Like-named read-outs stand apart in the source and are kept apart here.

Test system: HBV rcDNA in HepDE19 cells
Test: HepDE19 assay with bDNA quantitation of HBV rcDNA
Format: cell-based, hepatitis B virus (HBV)
Details: Hepatitis B virus, HepDE19, 168 h
Summary of the method: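 HepG2-derived HepDE19 cells, switched to Tet-free medium, were exposed 7 days at 37 °C to compound (8-point ½-log series from 25 μM, 0.5% DMSO). HBV rcDNA measured by bDNA assay with HBV-specific probes; EC50/EC90 by 4-parameter fit. CC50 from CellTiter-Glo ATP on replicate plates after 4 days.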

[1] = HepDE19 cells, 7 day incubation, rcDNA by Quantigene 2.0 bDNA assay, read-out: DE-19 bDNA EC50
[2] = read-out: DE-19 bDNA EC50, HepDE19 cells, 7 day incubation, rcDNA by Quantigene 2.0 bDNA assay

COC(=O)N[C@H]1CCOc2c(C(=O)Nc3ccnc(C)c3)ccc(F)c21 [Compound 135, methyl (S)-(5-fluoro-8-((2-methylpyridin-4-yl)carbamoyl)chroman-4-yl)carbamate]
EC50 [1]: 9700 nM

Cc1cc(NC(=O)c2ccc(F)c3c2OCC[C@@H]3NC(=O)OC[C@H]2CCC(=O)N2)ccc1F [Compound 136, ((R)-5-Oxopyrrolidin-2-yl)methyl ((S)-5-fluoro-8-((4-fluoro-3-methylphenyl)carbamoyl)chroman-4-yl)carbamate]
EC50 [1]: 1200 nM

Cc1cc(NC(=O)c2ccc(F)c3c2OCC[C@@H]3NC(=O)OC[C@@H]2CCC(=O)N2)ccc1F [Compound 137, ((S)-5-Oxopyrrolidin-2-yl)methyl ((S)-5-fluoro-8-((4-fluoro-3-methylphenyl)carbamoyl)chroman-4-yl)carbamate]
EC50 [1]: 900 nM

Cc1cc(NC(=O)c2ccc(F)c3c2OCC[C@@H]3NC(=O)OCCc2ccccn2)ccc1F [Compound 138, 2-(Pyridin-2-yl)ethyl (S)-(5-fluoro-8-((4-fluoro-3-methylphenyl)carbamoyl)chroman-4-yl)carbamate]
EC50 [1]: 600 nM

Cc1cc(NC(=O)c2ccc(F)c3c2OCC[C@@H]3NC(=O)OC[C@H]2CCCC(=O)N2)ccc1F [Compound 142, ((R)-6-Oxopiperidin-2-yl)methyl ((S)-5-fluoro-8-((4-fluoro-3-methylphenyl)carbamoyl)chroman-4-yl)carbamate]
EC50 [1]: 730 nM

Cc1cc(NC(=O)c2ccc(F)c3c2OCC[C@@H]3NC(=O)OCCN2CCCC2=O)ccc1F [Compound 143, 2-(2-Oxopyrrolidin-1-yl)ethyl (S)-(5-fluoro-8-((4-fluoro-3-methylphenyl)carbamoyl)chroman-4-yl)carbamate]
EC50 [1]: 1200 nM

CC(=O)NCCOC(=O)N[C@H]1CCOc2c(C(=O)Nc3ccc(F)c(C)c3)ccc(F)c21 [Compound 146, 2-Acetamidoethyl (S)-(5-fluoro-8-((4-fluoro-3-methylphenyl)carbamoyl)chroman-4-yl)carbamate]
EC50 [1]: 610 nM

Cc1cc(NC(=O)c2ccc(F)c3c2OCC[C@@H]3NC(=O)OC[C@@H]2CC(=O)N2)ccc1F [Compound 147, ((S)-4-Oxoazetidin-2-yl)methyl ((S)-5-fluoro-8-((4-fluoro-3-methylphenyl)carbamoyl)chroman-4-yl)carbamate]
EC50 [1]: 840 nM

COC(=O)N[C@H]1CCOc2c(C(=O)Nc3ccc(F)c(F)c3)cc(N)cc21 [Compound 148, Methyl (S)-(6-amino-8-((3,4-difluorophenyl)carbamoyl)chroman-4-yl)carbamate]
EC50 [1]: 6400 nM

CNC(=O)N[C@H]1CCOc2c(C(=O)Nc3ccc(F)c(F)c3)cc(N)cc21 [Compound 149, (S)-6-Amino-N-(3,4-difluorophenyl)-4-(3-methylureido)chromane-8-carboxamide]
EC50 [1]: 20000 nM

Cc1cc(NC(=O)c2ccc(F)c3c2OCC[C@@H]3NC(=O)NCc2ccccn2)ccc1F [Compound 150, (S)-5-Fluoro-N-(4-fluoro-3-methylphenyl)-4-(3-(pyridin-2-ylmethyl)ureido)chromane-8-carboxamide]
EC50 [2]: 1200 nM

Cc1cc(NC(=O)c2ccc(F)c3c2OCC[C@@H]3NC(=O)CCc2ccccn2)ccc1F [Compound 151, (S)-5-Fluoro-N-(4-fluoro-3-methylphenyl)-4-(3-(pyridin-2-yl)propanamido)chromane-8-carboxamide]
EC50 [1]: 560 nM

Cc1cc(NC(=O)c2ccc(F)c3c2OCC[C@@H]3NC(=O)NCCC(=O)O)ccc1F [Compound 152, (S)-3-(3-(5-Fluoro-8-((4-fluoro-3-methylphenyl)carbamoyl)chroman-4-yl)ureido)propanoic acid]
EC50 [1]: 15000 nM

O=C(N[C@H]1CCOc2c(C(=O)Nc3ccc(F)c(Cl)c3)ccc(F)c21)OCCc1ccccn1 [Compound 153, 2-(Pyridin-2-yl)ethyl (S)-(8-((3-chloro-4-fluorophenyl)carbamoyl)-5-fluorochroman-4-yl)carbamate]
EC50 [1]: 530 nM

O=C1C[C@@H](COC(=O)N[C@H]2CCOc3c(C(=O)Nc4ccc(F)c(Cl)c4)ccc(F)c32)N1 [Compound 154, ((S)-4-Oxoazetidin-2-yl)methyl ((S)-8-((3-chloro-4-fluorophenyl)carbamoyl)-5-fluorochroman-4-yl)carbamate]
EC50 [1]: 1100 nM

O=C1CC[C@H](COC(=O)N[C@H]2CCOc3c(C(=O)Nc4ccc(F)c(Cl)c4)ccc(F)c32)N1 [Compound 155, ((R)-5-Oxopyrrolidin-2-yl)methyl ((S)-8-((3-chloro-4-fluorophenyl)carbamoyl)-5-fluorochroman-4-yl)carbamate]
EC50 [1]: 1200 nM

O=C1CC[C@@H](COC(=O)N[C@H]2CCOc3c(C(=O)Nc4ccc(F)c(Cl)c4)ccc(F)c32)N1 [Compound 156, ((S)-5-Oxopyrrolidin-2-yl)methyl ((S)-8-((3-chloro-4-fluorophenyl)carbamoyl)-5-fluorochroman-4-yl)carbamate]
EC50 [1]: 740 nM

Nc1cc(C(=O)Nc2ccc(F)c(F)c2)c2c(c1)[C@@H](NC(=O)OCc1ccccn1)CCO2 [Compound 157, Pyridin-2-ylmethyl (S)-(6-amino-8-((3,4-difluorophenyl)carbamoyl)chroman-4-yl)carbamate]
EC50 [1]: 11000 nM

CC(C)(C)OC(=O)N[C@H]1CCOc2c(C(=O)Nc3ccc(F)c(Cl)c3)ccc(F)c21 [Compound 158, tert-Butyl (S)-(8-((3-chloro-4-fluorophenyl)carbamoyl)-5-fluorochroman-4-yl)carbamate]
EC50 [1]: 5800 nM

O=C(N[C@H]1CCOc2c(C(=O)Nc3ccc(F)c(Cl)c3)ccc(F)c21)OCCN1CCCC1=O [Compound 159, 2-(2-Oxopyrrolidin-1-yl)ethyl (S)-(5-fluoro-8-((3-chloro-4-fluorophenyl)carbamoyl)chroman-4-yl)carbamate]
EC50 [1]: 410 nM

O=C(N[C@H]1CCOc2c(C(=O)Nc3ccc(F)c(Cl)c3)ccc(F)c21)OCC(=O)N1CCCC1 [Compound 160, 2-Oxo-2-(pyrrolidin-1-yl)ethyl (S)-(8-((3-chloro-4-fluorophenyl)carbamoyl)-5-fluorochroman-4-yl)carbamate]
EC50 [1]: 420 nM

CC(=O)N1CC(COC(=O)N[C@H]2CCOc3c(C(=O)Nc4ccc(F)c(C)c4)ccc(F)c32)C1 [Compound 161, (1-Acetylazetidin-3-yl)methyl (S)-(5-fluoro-8-((4-fluoro-3-methylphenyl)carbamoyl)chroman-4-yl)carbamate]
EC50 [1]: 850 nM

CS(=O)(=O)N1CCC(COC(=O)N[C@H]2CCOc3c(C(=O)Nc4ccc(F)c(Cl)c4)ccc(F)c32)CC1 [Compound 162, (1-(Methylsulfonyl)piperidin-4-yl)methyl (S)-(8-((3-chloro-4-fluorophenyl)carbamoyl)-5-fluorochroman-4-yl)carbamate]
EC50 [2]: 6100 nM

CN(C)S(=O)(=O)N1CCC(COC(=O)N[C@H]2CCOc3c(C(=O)Nc4ccc(F)c(Cl)c4)ccc(F)c32)CC1 [Compound 163, (1-(N,N-dimethylsulfamoyl)piperidin-4-yl)methyl (S)-(8-((3-chloro-4-fluorophenyl)carbamoyl)-5-fluorochroman-4-yl)carbamate]
EC50 [2]: 1000 nM

O=C(N[C@H]1CCOc2c(C(=O)Nc3ccc(F)c(Cl)c3)ccc(F)c21)OCC1CCN(C(=O)CO)CC1 [Compound 164, (1-(2-Hydroxyacetyl)piperidin-4-yl)methyl (S)-(8-((3-chloro-4-fluorophenyl)carbamoyl)-5-fluorochroman-4-yl)carbamate]
EC50 [2]: 680 nM
